{
  "source": "patent US12558343B2",
  "about": "“Medical use of icaritin” (Lunan Pharmaceutical Group Corporation, priority 2020, dated 2026)",
  "key": {"[1]": {"tested_on": "prolonged bleeding time caused by heparin sodium", "assay": "Tail-cut bleeding time in mice, prolonged by heparin sodium", "type": "in vivo, ICR mice", "settings": "group P, 200 mg/kg i.p. once a day 5 days; heparin sodium 150 U/kg i.v.", "source_text": "72 ICR mice aged 5-6 weeks, weighing 19-21 g, and half male and half female were selected. The mice were quarantined for 7 days after entering a laboratory and healthy mice were selected as test animals. The mice were weighed on first and last days of quarantine. According to the body weight on the last day of the quarantine, the male and female animals were divided into six groups by a simplified random method, namely, a normal group (C), a model group (V), low-, medium- and high-dose icaritin groups (2, 6, and 18 mg/kg, L, M, H) and a positive control drug group (200 mg/kg of etamsylate, P).\n(§1) After 15 min of the modeling, the tails of the mice were cut and bleeding time of each mouse was measured."}, "[2]": {"settings": "mouse, in vivo, ip, 200 mg/kg", "description": "(§7) After the grouping, the mice in the normal group and the model group were intragastrically administrated with 10 ml/kg of an icaritin solvent which was prepared by adding 12 g of hypromellose E5 and 0.1 g of sodium lauryl sulfate into 1 L of water. […] One hour after the last pre-administration, the mice in the model group and each administration group were injected with 150 U/kg of a heparin sodium injection through a tail vein to establish a model, and the mice in the normal group were injected with 10 ml/kg of a sodium chloride injection through a tail vein.\n(§8) After the bleeding time was detected, the mice were anesthetized with sodium pentobarbital, blood was collected from an abdominal cardinal vein, and indicators of blood routine examination and four coagulation indicators (prothrombin time, thromboplastin time, thrombin time, and fibrinogen) were detected."}, "[3]": {"tested_on": "prolonged bleeding time caused by aspirin", "assay": "Tail-cut bleeding time in mice, prolonged by aspirin", "type": "in vivo, ICR mice", "settings": "group P, 200 mg/kg i.p. once a day 5 days; aspirin 20 mg/kg i.g.", "method": "According to the body weight on the last day of the quarantine, the male and female animals were divided into six groups by a simplified random method, namely, a normal group (C), a model group (V), icaritin low-, medium- and high-dose groups (2, 6, and 18 mg/kg, L, M, H) and a positive control drug group (200 mg/kg of etamsylate, P).\nas §1"}, "[4]": {"settings": "mouse, in vivo, ip, 200 mg/kg", "remark": "listed apart in the source", "description": "as §7, §8"}, "[5]": {"tested_on": "hemorrhagic transformation model induced by clopidogrel combined with cerebral ischemia-reperfusion", "assay": "Hemorrhagic transformation after cerebral ischemia-reperfusion (MCAO) caused by clopidogrel, bleeding rate", "type": "in vivo, ICR mice", "settings": "12 mg/kg i.g. Day 1-3 with clopidogrel 15 mg/kg; 24 h after MCAO; of 8 (icaritin) or 7 (icariin) animals", "method": "(§2) 5-week-old ICR male mice were fed to 6-week-old and divided into a control group, a model group, an icaritin-3 mg/kg group, an icaritin-6 mg/kg group, an icaritin-12 mg/kg group, and an icariin-12 mg/kg group according to body weight. From day 1 to day 3 after the grouping, the mice in each icaritin group were separately intragastrically administrated with 3, 6, and 12 mg/kg of icaritin and the mice in the icariin group was intragastrically administrated with 12 mg/kg of icariin once a day, and the mice in other groups were intragastrically administrated with a corresponding vehicle; and except the control group, the mice in other groups were intragastrically administrated with aspirin (100 mg/kg) or clopidogrel (15 mg/kg) once a day at a volume of 10 mL/kg.\n(§3) On day 3, 10 min after the administration, the mice were anesthetized by intraperitoneal injection of 70 mg/kg of pentobarbital sodium and subjected to a cerebral ischemia-reperfusion (middle cerebral artery occlusion, MCAO) surgery with ischemia for 1 h and reperfusion for 23 h.\n(§4) 24 h after the surgery was an end point of the experiment.\n(§5) Bleeding rate: the mice were anesthetized by intraperitoneal injection of 70 mg/kg of pentobarbital sodium, a brain tissue was taken out, cerebral hemorrhage was recorded and a bleeding rate of the mice in each group was calculated. Cerebral hemorrhage rate %=number of animals with cerebral hemorrhage/number of surviving animals in each group×100."}, "[6]": {"tested_on": "hemorrhagic transformation model induced by aspirin combined with cerebral ischemia-reperfusion", "assay": "Hemorrhagic transformation after cerebral ischemia-reperfusion (MCAO) caused by aspirin, bleeding rate", "type": "in vivo, ICR mice", "settings": "12 mg/kg i.g. Day 1-3 with aspirin 100 mg/kg; 24 h after MCAO; of 9 (icaritin) or 8 (icariin) animals", "method": "as §2, §3, §4, §5"}, "gastric injury": {"tested_on": "gastric injury", "set-up": "species or system SD rats", "settings": "rat, in vivo", "method": "(§6) An animal model of thromboembolic cerebral ischemia was prepared by blocking a middle cerebral artery with an autologous thrombus combined with a suture occlusion method, and a catheter was indwelled.\nThe left lung and gastric antrum were excised, fixed with 100 g/L of a neutral formaldehyde solution, and dehydrated conventionally to be transparent, the dehydrated tissue was dipped with wax and embedded, the embedded tissue was sectioned and stained, and pathological changes were observed under a light microscope. A damage degree was graded according to a degree of tissue congestion, edema and cell degeneration from mild to severe: grade I: 0%-25%, grade II: 26%-50%, grade III: 51%-75%, and grade IV: >75% (bleeding was observed under the microscope)."}, "[7]": {"tested_on": "gastric bleeding caused by thrombolytic drug", "set-up": "species or system SD rats", "settings": "rat, in vivo", "method": "as §6\n24 h after the arterial administration, the rats in each group were anesthetized and dissected. The number of bleeding cases was observed under naked eyes and a light microscope, and a ratio of the number of bleeding cases to the total number was calculated."}, "myocardial infarction [8]": {"tested_on": "myocardial infarction", "assay": "Isoproterenol myocardial infarction rats, electrocardiogram", "type": "in vivo, Wistar male rats", "settings": "rt-PA 5 mg/kg femoral vein, compared with the model group", "method": "60 Wistar male rats (SPF grade), weighing 220-260 g, were randomly divided into a myocardial infarction modeling group and a control group according to a random number table, with 12 rats in the control group and 48 rats in the model group. The rats were conventionally fed in separate cages with 4 rats per cage. After a normal electrocardiogram was traced, the rats in the myocardial infarction modeling group were subcutaneously injected with 150 mg·kg^−1·d^−1 of isoproterenol (ISO) in a volume of 0.2 mL/100 g every other 24 h for 2 consecutive days. The rats in the control group were subcutaneously injected with a same amount (0.2 mL/100 g) of normal saline according the same method for 2 consecutive days. The electrocardiogram was monitored 24 h after the second subcutaneous injection of the isoproterenol. […] The ST segment elevation of greater than 0.2 mV in lead II or the formation of Q wave became the standard for myocardial infarction. […]\nThe rats were anesthetized by inhalation of ether. […] The electrocardiogram of the rat was monitored using the limb leads according to right upper limb-red, left upper limb-yellow, left lower limb-green, and right lower limb-black, an electrocardiograph was turned on at a paper speed of 50 mm/s and a voltage of 1 mv, and the animals were returned to the cages after the electrocardiogram."}, "myocardial infarction [9]": {"tested_on": "myocardial infarction", "assay": "Isoproterenol myocardial infarction rats, heart weight / body weight", "type": "in vivo, Wistar male rats", "settings": "rt-PA 5 mg/kg femoral vein", "method": "60 Wistar male rats (SPF grade), weighing 220-260 g, were randomly divided into a myocardial infarction modeling group and a control group according to a random number table, with 12 rats in the control group and 48 rats in the model group. The rats were conventionally fed in separate cages with 4 rats per cage. After a normal electrocardiogram was traced, the rats in the myocardial infarction modeling group were subcutaneously injected with 150 mg·kg^−1·d^−1 of isoproterenol (ISO) in a volume of 0.2 mL/100 g every other 24 h for 2 consecutive days. The rats in the control group were subcutaneously injected with a same amount (0.2 mL/100 g) of normal saline according the same method for 2 consecutive days. The electrocardiogram was monitored 24 h after the second subcutaneous injection of the isoproterenol. […] The ST segment elevation of greater than 0.2 mV in lead II or the formation of Q wave became the standard for myocardial infarction.\nA total of 36 modeled rats were selected from the modeling group and randomly divided into a model group, a thrombolysis group and a thrombolytic drug+icaritin group according to the random number table. […]"}, "cerebral infarction": {"tested_on": "cerebral infarction", "assay": "Same rt-PA thrombolysis model, cerebral infarction volume (rate)", "type": "in vivo, rats", "settings": "rt-PA 5 mg/kg alone, compared with the model group", "method": "An incision about 3.0-cm-long was taken from the skin in the middle of the neck, the muscle and the subcutaneous tissue were bluntly separated, the right bilateral common carotid arteries, external carotid arteries, and internal carotid arteries were separated to avoid damage to the vagus nerve, the internal carotid arteries were separated to the skull base, and the external carotid arteries were ligated at the bifurcation of the bilateral common carotid arteries. 0.1 ml of arterial blood from the femoral artery of the rat was taken using a 1-ml syringe, 4 U of thrombin was added, the materials were uniformly mixed and stood for 8-10 min, when the blood was coagulated, and the coagulated blood was injected into a 24 G venous indwelling needle to prepare a thrombus about 1-cm-long followed by a syringe containing 1-2 ml of normal saline. […] Infarct volume=non-ischemic side hemisphere volume-ischemic side hemisphere non-infarct area volume, and an infarct volume ratio was expressed as the percentage (%) of the infarct volume to the non-ischemic side hemisphere volume."}, "[10]": {"tested_on": "hemorrhagic transformation induced by thrombolytic drug", "assay": "Rat middle cerebral artery autologous thrombosis with rt-PA thrombolysis, cerebral hemorrhage volume", "type": "in vivo", "method": "A rat model of middle cerebral artery autologous thrombosis was prepared according to the following method: rats were anesthetized by intraperitoneal injection of 10% […] at 350 mg/kg body weight and fixed on an operating table in a supine position, skin of the rats was routinely disinfected according to aseptic operation procedures, and draping was performed. An incision about 3.0-cm-long was taken from the skin in the middle of the neck, the muscle and the subcutaneous tissue were bluntly separated, the right bilateral common carotid arteries, external carotid arteries, and internal carotid arteries were separated to avoid damage to the vagus nerve, the internal carotid arteries were separated to the skull base, and the external carotid arteries were ligated at the bifurcation of the bilateral common carotid arteries. 0.1 ml of arterial blood from the femoral artery of the rat was taken using a 1-ml syringe, 4 U of thrombin was added, the materials were uniformly mixed and stood for 8-10 min, when the blood was coagulated, and the coagulated blood was injected into a 24 G venous indwelling needle to prepare a thrombus about 1-cm-long followed by a syringe containing 1-2 ml of normal saline. […]\nAnother 4 healthy rats were taken, sacrificed by excessive anesthesia, and subjected to cardiac perfusion. […] cerebral hemisphere tissues were taken, 0, 0.5, 1, 2, 4, 8, 16, 32, and 50 μL of arterial blood of male SD rats was successively added to each hemisphere tissue, PBS at a pH of 7.4 was added to a total volume of 3 ml, the tissue was homogenized for 30 s and ultrasonically lysed, and centrifugation was performed at 13,000 r/min and 4° C. for 30 min 0.8 mL of Drabkin's reagent was mixed with 0.2 mL of a supernatant of each sample, an obtained mixture was placed in a dark place at a room temperature for 10 min, and an absorbance at a wavelength of 540 nm (absorbance of sample not containing blood was set to 0) was measured. The absorbance was set as a Y-axis and the blood volume in each sample was set as an X-axis to draw a standard curve. […]"}},
  "data": [
    {"compound": "O=S(=O)(O)c1cc(O)ccc1O", "note": "[Etamsylate, reference compound]", "values": [
      {"measurement": "Bleeding time", "setting": "[1]", "result": "21.4 ± 6.7^$ min"},
      {"measurement": "Fibrinogen", "setting": "[2]", "result": "1.86 ± 0.40", "unit": "g/L"},
      {"measurement": "Prothrombin time", "setting": "[2]", "result": "10.03 ± 1.24", "unit": "s"},
      {"measurement": "Thrombin time", "setting": "[2]", "result": "24.34 ± 1.37", "unit": "s"},
      {"measurement": "Thromboplastin time", "setting": "[2]", "result": "22.78 ± 2.34", "unit": "s"},
      {"measurement": "Bleeding time", "setting": "[3]", "result": "26.4 ± 6.4^$ min"},
      {"measurement": "Number of erythrocytes", "setting": "[4]", "result": "6.998 ± 0.871 10^12/L"},
      {"measurement": "Number of leukocytes", "setting": "[4]", "result": "1.903 ± 0.221 10^9/L"},
      {"measurement": "Number of platelets", "setting": "[4]", "result": "1097 ± 114 10^9/L"}
    ]},
    {"compound": "COc1ccc(-c2oc3c(CC=C(C)C)c(O[C@@H]4O[C@H](CO)[C@@H](O)[C@H](O)[C@H]4O)cc(O)c3c(=O)c2O[C@@H]2O[C@@H](C)[C@H](O)[C@@H](O)[C@H]2O)cc1", "note": "[Icariin, reference compound]", "values": [
      {"measurement": "Number of animals with cerebral hemorrhage", "setting": "[5]", "result": 5},
      {"measurement": "Number of animals with cerebral hemorrhage", "setting": "[6]", "result": 6}
    ]},
    {"compound": "Urokinase", "values": [
      {"measurement": "Incidence of gastric injury", "setting": "gastric injury", "result": "100 ^$ $ %"},
      {"measurement": "Number of animals, gastric damage grade I", "setting": "gastric injury", "result": 1},
      {"measurement": "Number of animals, gastric damage grade II", "setting": "gastric injury", "result": 2},
      {"measurement": "Number of animals, gastric damage grade III", "setting": "gastric injury", "result": 2},
      {"measurement": "Number of animals, gastric damage grade IV", "setting": "gastric injury", "result": 11},
      {"measurement": "Total number of animals with gastric injury", "setting": "gastric injury", "result": 16},
      {"measurement": "Bleeding rate", "setting": "[7]", "result": "68.8^$ $ %"},
      {"measurement": "Number of bleeding animals", "setting": "[7]", "result": 11}
    ]},
    {"compound": "rt-PA: alteplase (rt-PA), thrombolytic drug, 5 mg/kg via the femoral vein", "values": [
      {"measurement": "Pathological Q waves in electrocardiogram", "setting": "myocardial infarction [8]", "result": "disappeared"},
      {"measurement": "Whole heart weight", "setting": "myocardial infarction [9]", "result": "702.3 ± 10.8", "unit": "mg"},
      {"measurement": "Heart weight/body weight", "setting": "myocardial infarction [9]; model group 4.0, control 2.6", "result": "2.8^$ $ mg/g"},
      {"measurement": "Pale white area of the infarcted area", "setting": "cerebral infarction", "result": "significantly decreased"},
      {"measurement": "Cerebral hemorrhage volume", "setting": "[10]; rt-PA 5 mg/kg femoral vein 3 h after modeling, 3 h after thrombolysis", "result": "6.43 ± 0.89"},
      {"measurement": "Cerebral hemorrhage volume", "setting": "[10]; rt-PA 5 mg/kg femoral vein, 6 h after thrombolysis", "result": "9.78 ± 1.01"},
      {"measurement": "Cerebral hemorrhage volume", "setting": "[10]; rt-PA 5 mg/kg femoral vein, 24 h after thrombolysis", "result": "15.32 ± 2.01"}
    ]}
  ]
}
